This note sets out measurements from patent US11149037B2, “Pyrazole MAGL inhibitors” (H. Lundbeck A/S, priority 2017, dated 2021).

One may read the IC50 as the concentration at which inhibition is half-maximal. The low end stands for inhibition by little substance, the high end for a need for much substance.

Test [1] has as its target FAAH (Homo sapiens (Human), UniProt O00519). Put plainly: In vitro competitive activity-based protein profiling, human proteomes (prefrontal cortex or PC3 cell membrane fractions). It is filed as biochemical. The following applies: human proteome; for inhibition at 1 µM: read-out: FAAH % inh. 1 μM (human). An outline of the steps: (§1)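 Activity of MAGL and FAAH was quantified from fluorescent gel band intensities. Beforehand, inhibitors at several concentrations competed against subsequent probe labelling (FP-Rh, JW912 or HT-01) in species-matched proteomes, each step 30 min at 37° C.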

Test [2] has as its target MAGL (Homo sapiens (Human), UniProt Q99685). The description is as above. In kind it is biochemical. The following applies: human proteome; for inhibition at 1 µM: read-out: MAGL % inh. 1 μM (human). The procedure, abridged:
as §1

The target in test [3] is T1, FAAH (Mus musculus (Mouse), UniProt O08914). Briefly: In vitro competitive activity-based protein profiling, mouse proteomes (brain membrane fraction or cell lysates). The following applies: mouse proteome, read-out: FAAH % inh. 1 μM (mouse). In kind it is biochemical. The procedure, abridged: as §1
T1 sequence (O08914 whole entry): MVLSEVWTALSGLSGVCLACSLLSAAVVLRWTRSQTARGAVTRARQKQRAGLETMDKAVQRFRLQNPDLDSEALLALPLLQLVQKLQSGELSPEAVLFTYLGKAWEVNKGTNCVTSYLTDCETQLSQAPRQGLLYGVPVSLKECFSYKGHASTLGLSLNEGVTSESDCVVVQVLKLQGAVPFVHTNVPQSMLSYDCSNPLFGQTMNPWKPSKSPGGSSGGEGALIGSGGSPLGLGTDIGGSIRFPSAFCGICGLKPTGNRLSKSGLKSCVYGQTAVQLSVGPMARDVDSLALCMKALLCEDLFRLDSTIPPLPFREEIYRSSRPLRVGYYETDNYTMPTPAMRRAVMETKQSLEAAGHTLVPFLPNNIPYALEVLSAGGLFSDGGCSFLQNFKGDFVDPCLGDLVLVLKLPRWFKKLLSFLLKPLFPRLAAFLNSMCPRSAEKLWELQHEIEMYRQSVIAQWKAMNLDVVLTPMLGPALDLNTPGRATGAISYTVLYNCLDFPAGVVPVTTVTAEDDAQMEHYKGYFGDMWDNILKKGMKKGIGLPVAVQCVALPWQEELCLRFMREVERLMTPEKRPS
In test [4] the target is T2, MAGL (Mus musculus (Mouse), UniProt O35678). The description is as above. The following applies: mouse proteome, read-out: MAGL % inh. 1 μM (mouse). In kind it is biochemical. The procedure, abridged: as §1
T2 sequence (O35678 whole entry): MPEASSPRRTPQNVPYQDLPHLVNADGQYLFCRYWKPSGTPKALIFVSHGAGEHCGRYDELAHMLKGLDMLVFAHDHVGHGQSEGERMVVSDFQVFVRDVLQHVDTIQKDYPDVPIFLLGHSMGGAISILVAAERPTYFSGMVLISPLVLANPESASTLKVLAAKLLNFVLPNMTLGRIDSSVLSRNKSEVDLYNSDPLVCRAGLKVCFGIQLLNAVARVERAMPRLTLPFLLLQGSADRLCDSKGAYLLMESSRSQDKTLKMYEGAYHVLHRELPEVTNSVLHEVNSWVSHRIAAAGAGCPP
Test [5] has as its target T1, FAAH. Briefly: Mouse brain proteomes from inhibitor treated mice (oral gavage, sacrificed 4 h after administration). It is filed as in vivo. The following applies: 5 mg/kg oral gavage. As for the experimental part: (§2) Preparation of Mouse Brain Proteomes from Inhibitor Treated Mice.
(§3) Inhibitors were administered to wild-type C57B1/6J by oral gavage in a vehicle of polyethylene glycol. Each animal was sacrificed 4 h following administration and brain proteomes were prepared and analyzed according to previously established methods (See Niphakis, M. J., et al. (2011) ACS Chem. Neurosci. and Long, J. Z., et al. Nat. Chem. Biol. 5:37-44).

Test [6] has as its target T2, MAGL. The test is described as above. In kind it is in vivo. The following applies: 5 mg/kg oral gavage. As to the method:
as §2, §3

Chain of MAGL (Homo sapiens (Human), UniProt Q99685) (Q99685 whole entry): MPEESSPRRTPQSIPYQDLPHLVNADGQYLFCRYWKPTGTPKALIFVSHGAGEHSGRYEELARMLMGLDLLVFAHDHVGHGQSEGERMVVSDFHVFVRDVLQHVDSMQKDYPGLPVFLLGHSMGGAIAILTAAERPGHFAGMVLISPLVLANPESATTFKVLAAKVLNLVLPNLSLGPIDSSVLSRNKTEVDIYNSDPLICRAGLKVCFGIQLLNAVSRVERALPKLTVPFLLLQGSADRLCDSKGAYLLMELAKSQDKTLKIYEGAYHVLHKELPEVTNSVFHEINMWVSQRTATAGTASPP
Chain of FAAH (Homo sapiens (Human), UniProt O00519) (O00519 whole entry): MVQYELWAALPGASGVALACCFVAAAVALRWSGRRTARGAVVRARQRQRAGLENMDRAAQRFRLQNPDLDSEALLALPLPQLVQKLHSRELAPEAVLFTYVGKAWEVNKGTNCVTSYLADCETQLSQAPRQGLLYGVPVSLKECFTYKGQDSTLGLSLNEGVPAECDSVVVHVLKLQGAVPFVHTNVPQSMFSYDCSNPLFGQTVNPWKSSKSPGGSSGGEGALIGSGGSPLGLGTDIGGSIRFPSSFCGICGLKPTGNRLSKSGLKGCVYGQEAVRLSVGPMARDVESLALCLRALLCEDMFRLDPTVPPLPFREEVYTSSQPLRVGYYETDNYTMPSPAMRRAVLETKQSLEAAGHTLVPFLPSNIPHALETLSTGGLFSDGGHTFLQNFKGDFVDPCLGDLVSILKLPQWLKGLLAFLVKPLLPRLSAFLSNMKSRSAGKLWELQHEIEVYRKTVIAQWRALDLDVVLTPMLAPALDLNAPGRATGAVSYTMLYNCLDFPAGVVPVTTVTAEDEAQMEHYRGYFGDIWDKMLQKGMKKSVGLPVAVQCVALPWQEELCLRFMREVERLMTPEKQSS

Take `CC(=O)Nc1ccn(C(=O)N2CCN(Cc3ccc(Cl)cc3OC3(C(=O)O)CC3)CC2)n1` [Example 4, 1-(2-((4-(3-acetamido-1H-pyrazole-1-carbonyl)piperazin-1-yl)methyl)-5-chlorophenoxy)cyclopropane-1-carboxylic acid]: the inhibition at 1 µM on FAAH [1] is 0 to 25%; on MAGL [2], > 75%; at FAAH [3], 0 to 25%; at MAGL [4], > 75%. For the same compound, the “FAAH % inh. 5 mg/kg (mouse)” value at FAAH [5] is “D (% inhibition is greater than or equal to 0% and less than 25%)”. Further, the “MAGL % inh. 5 mg/kg (mouse)” value on MAGL [6] is “D (% inhibition is greater than or equal to 0% and less than 25%)”.

In the case of `C[C@@H](c1ccc(Cl)c(N2CCC(F)CC2)c1)N1CCN(C(=O)n2ccc(NS(C)(=O)=O)n2)CC1` [Example 11, (S)—N-(1-(4-(1-(4-chloro-3-(4-fluoropiperidin-1-yl)phenyl)ethyl)piperazine-1-carbonyl)-1H-pyrazol-3-yl)methanesulfonamide], the inhibition at 1 µM is 0 to 25% at FAAH [1], > 75% on MAGL [2], 0 to 25% on FAAH [3] and > 75% at MAGL [4]. Further, the half-inhibitory concentration (IC50) on FAAH [1] was 1 to 10 µM; on MAGL [2], < 0.1 µM. For the same compound, at FAAH [5], the “FAAH % inh. 5 mg/kg (mouse)” value was “D (% inhibition is greater than or equal to 0% and less than 25%)”. In addition, the “MAGL % inh. 5 mg/kg (mouse)” value at MAGL [6] is “C (% inhibition is greater than or equal to 25% and less than 50%)”.

As for `CS(=O)(=O)Nc1ccn(C(=O)N2CCN(Cc3ccc(Cl)c(N4CCCC45CC5)c3)CC2)n1` [Example 12, N-(1-(4-(4-chloro-3-(4-azaspiro[2.4]heptan-4-yl)benzyl)piperazine-1-carbonyl)-1H-pyrazol-3-yl)methanesulfonamide], the inhibition at 1 µM on FAAH [1] was 0 to 25%; on MAGL [2] it was > 75%; on FAAH [3], 0 to 25%; at MAGL [4], > 75%. Further, the “FAAH % inh. 5 mg/kg (mouse)” value at FAAH [5] is “D (% inhibition is greater than or equal to 0% and less than 25%)”. Further, the “MAGL % inh. 5 mg/kg (mouse)” value on MAGL [6] is “D (% inhibition is greater than or equal to 0% and less than 25%)”.

As for `CC(=O)Nc1ccn(C(=O)N2CCC3(CCCN3Cc3cc4cc(C(N)=O)ccc4[nH]3)CC2)n1` [Example 14, 2-((8-(3-acetamido-1H-pyrazole-1-carbonyl)-1,8-diazaspiro[4.5]decan-1-yl)methyl)-1H-indole-5-carboxamide], the inhibition at 1 µM was 0 to 25% at FAAH [1], > 75% at MAGL [2], 0 to 25% on FAAH [3] and 50 to 75% at MAGL [4]. Moreover, the IC50 was 1 to 10 µM at FAAH [1] and < 0.1 µM at MAGL [2]. In addition, the “FAAH % inh. 5 mg/kg (mouse)” value on FAAH [5] is “D (% inhibition is greater than or equal to 0% and less than 25%)”. The “MAGL % inh. 5 mg/kg (mouse)” value on MAGL [6] is “D (% inhibition is greater than or equal to 0% and less than 25%)”.

Take `CC(=O)Nc1ccn(C(=O)N2CCN(Cc3ccc(N4CC5COCC5C4)cc3C(F)(F)F)CC2)n1` (centres unmarked) [Example 22, N-(1-(4-(4-(tetrahydro-1H-furo[3,4-c]pyrrol-5(3H)-yl)-2-(trifluoromethyl)benzyl)piperazine-1-carbonyl)-1H-pyrazol-3-yl)acetamide]: the inhibition at 1 µM was 50 to 75% at FAAH [1], > 75% at MAGL [2], > 75% at FAAH [3] and > 75% on MAGL [4]. For the same compound, the IC50 at FAAH [1] was 0.1 to 1 µM; at MAGL [2] it was < 0.1 µM. Besides, the “FAAH % inh. 5 mg/kg (mouse)” value on FAAH [5] was “C (% inhibition is greater than or equal to 25% and less than 50%)”. For the same compound, the “MAGL % inh. 5 mg/kg (mouse)” value at MAGL [6] was “C (% inhibition is greater than or equal to 25% and less than 50%)”.

Consider `CC(=O)Nc1ccn(C(=O)N2CC3CN(Cc4cc(Cl)cc(N5CCOCC5)c4)CC3C2)n1` (centres unmarked) [Example 167, N-(1-(5-(3-Chloro-5-morpholinobenzyl)octahydropyrrolo[3,4-c]pyrrole-2-carbonyl)-1H-pyrazol-3-yl)acetamide], for which the inhibition at 1 µM is 25 to 50% at FAAH [1], > 75% at MAGL [2], > 75% at FAAH [3] and > 75% on MAGL [4].

On to `CC(=O)Nc1ccn(C(=O)N2CC3CN(Cc4cc(Cl)cc(N5CCCC5)c4)CC3C2)n1` (centres unmarked) [Example 172, N-(1-(5-(3-Chloro-5-(pyrrolidin-1-yl)benzyl)octahydropyrrolo[3,4-c]pyrrole-2-carbonyl)-1H-pyrazol-3-yl)acetamide], for which the values for the half-inhibitory concentration (IC50) at FAAH [1] and on MAGL [2] were 0.1 to 1 µM and < 0.1 µM, respectively. Further, the inhibition at 1 µM on FAAH [3] and on MAGL [4] was > 75% each time.

For `CC(=O)Nc1ccn(C(=O)N2CC3CN(Cc4cccc(Oc5ccccc5)c4)CC3C2)n1` (centres unmarked) [Example 173, N-(1-(5-(3-Phenoxybenzyl)octahydropyrrolo[3,4-c]pyrrole-2-carbonyl)-1H-pyrazol-3-yl)acetamide], the results for the IC50 at FAAH [1] and on MAGL [2] were 0.1 to 1 µM and < 0.1 µM, respectively. The inhibition at 1 µM on FAAH [3] and at MAGL [4] was > 75% throughout.

For `CC(=O)Nc1ccn(C(=O)N2CCC3(CCN(Cc4cc(F)cc(Cl)c4)C3)CC2)n1` [Example 176, N-(1-(2-(3-Chloro-5-fluorobenzyl)-2,8-diazaspiro[4.5]decane-8-carbonyl)-1H-pyrazol-3-yl)acetamide], the inhibition at 1 µM on MAGL [2] and at MAGL [4] was > 75% in each case. For the same compound, on MAGL [2], the IC50 was < 0.1 µM. Further, at MAGL [6], the “MAGL % inh. 5 mg/kg (mouse)” value was “A (% inhibition is greater than or equal to 75%)”.

As to `C[C@@H]1CN(C(=O)n2ccc(NS(C)(=O)=O)n2)CCN1Cc1ccc(C(F)(F)F)c(N2CC3COCC3C2)c1` (stereo partly drawn) [Example 182, N-(1-((3R)-3-Methyl-4-(3-(tetrahydro-1H-furo[3,4-c]pyrrol-5(3H)-yl)-4-(trifluoromethyl)benzyl)piperazine-1-carbonyl)-1H-pyrazol-3-yl)methanesulfonamide], on MAGL [2], the inhibition at 1 µM was > 75% and the IC50 is < 0.1 µM. On MAGL [4], the inhibition at 1 µM was > 75%. The “MAGL % inh. 5 mg/kg (mouse)” value on MAGL [6] is “D (% inhibition is greater than or equal to 0% and less than 25%)”.

For `C[C@H]1CN(C(=O)n2ccc(NS(C)(=O)=O)n2)CCN1Cc1ccc(C(F)(F)F)c(N2CCC(C(F)(F)F)CC2)c1` [Example 185, (S)-N-(1-(3-Methyl-4-(4-(trifluoromethyl)-3-(4-(trifluoromethyl)piperidin-1-yl)benzyl)piperazine-1-carbonyl)-1H-pyrazol-3-yl)methanesulfonamide], the inhibition at 1 µM on MAGL [2] and at MAGL [4] was > 75% each time. Also, at MAGL [6], the “MAGL % inh. 5 mg/kg (mouse)” value was “A (% inhibition is greater than or equal to 75%)”.

With `C[C@H]1CN(C(=O)n2ccc(NS(C)(=O)=O)n2)CCN1Cc1ccc(Cl)c(N2CCC(F)(F)CC2)c1` [Example 186, (S)-N-(1-(4-(4-Chloro-3-(4,4-difluoropiperidin-1-yl)benzyl)-3-methylpiperazine-1-carbonyl)-1H-pyrazol-3-yl)methanesulfonamide], the inhibition at 1 µM on MAGL [2] and at MAGL [4] was > 75% each time. For the same compound, the “MAGL % inh. 5 mg/kg (mouse)” value on MAGL [6] was “A (% inhibition is greater than or equal to 75%)”.

For `C[C@H]1CN(C(=O)n2ccc(NS(C)(=O)=O)n2)CCN1Cc1ccc(Cl)c(N2CCC(C(F)(F)F)CC2)c1` [Example 188, (S)-N-(1-(4-(4-Chloro-3-(4-(trifluoromethyl)piperidin-1-yl)benzyl)-3-methylpiperazine-1-carbonyl)-1H-pyrazol-3-yl)methanesulfonamide], the inhibition at 1 µM at MAGL [2] and at MAGL [4] was > 75% in each case. Also, on MAGL [6], the “MAGL % inh. 5 mg/kg (mouse)” value is recorded as “A (% inhibition is greater than or equal to 75%)”.

For the compound `C[C@H]1CN(C(=O)n2ccc(NS(C)(=O)=O)n2)CCN1Cc1ccc(Cl)c(N2CC[C@H](F)C2)c1` [Example 189, N-(1-((S)-4-(4-Chloro-3-((S)-3-fluoropyrrolidin-1-yl)benzyl)-3-methylpiperazine-1-carbonyl)-1H-pyrazol-3-yl)methanesulfonamide], the inhibition at 1 µM at MAGL [2] and on MAGL [4] was > 75% throughout. Moreover, the “MAGL % inh. 5 mg/kg (mouse)” value at MAGL [6] is “A (% inhibition is greater than or equal to 75%)”.

On to `CC(C)N1CCN(c2cc(CN3CCN(C(=O)n4ccc(NS(C)(=O)=O)n4)C[C@@H]3C)ccc2Cl)CC1=O` [Example 190, (S)-N-(1-(4-(4-Chloro-3-(4-isopropyl-3-oxopiperazin-1-yl)benzyl)-3-methylpiperazine-1-carbonyl)-1H-pyrazol-3-yl)methanesulfonamide], for which the inhibition at 1 µM on MAGL [2] and on MAGL [4] was > 75% in each case. Moreover, the “MAGL % inh. 5 mg/kg (mouse)” value on MAGL [6] was “D (% inhibition is greater than or equal to 0% and less than 25%)”.

As for `CN(Cc1ccc(Cl)cc1N1CC2COCC2C1)C1(C)CCN(C(=O)n2ccc(NS(C)(=O)=O)n2)CC1` (centres unmarked) [Example 197, N-(1-(4-((4-Chloro-2-(tetrahydro-1H-furo[3,4-c]pyrrol-5(3H)-yl)benzyl)(methyl)amino)-4-methylpiperidine-1-carbonyl)-1H-pyrazol-3-yl)methanesulfonamide], the inhibition at 1 µM at MAGL [2] and on MAGL [4] was > 75% each time. On MAGL [6], the “MAGL % inh. 5 mg/kg (mouse)” value was “D (% inhibition is greater than or equal to 0% and less than 25%)”.
